ChEMBL document CHEMBL1208779, “Integrated ligand and structure based studies of flavonoids as fatty acid biosynthesis inhibitors of Plasmodium falciparum” (Bioorg Med Chem Lett, 2010)
Activity calls are given as the source filed them. The calls are words filed in the database; no cut-off is given here.

Molecular target: T1, Enoyl-acyl-carrier protein reductase (Plasmodium falciparum) (UniProt Q965D5)
T1 sequence (whole entry): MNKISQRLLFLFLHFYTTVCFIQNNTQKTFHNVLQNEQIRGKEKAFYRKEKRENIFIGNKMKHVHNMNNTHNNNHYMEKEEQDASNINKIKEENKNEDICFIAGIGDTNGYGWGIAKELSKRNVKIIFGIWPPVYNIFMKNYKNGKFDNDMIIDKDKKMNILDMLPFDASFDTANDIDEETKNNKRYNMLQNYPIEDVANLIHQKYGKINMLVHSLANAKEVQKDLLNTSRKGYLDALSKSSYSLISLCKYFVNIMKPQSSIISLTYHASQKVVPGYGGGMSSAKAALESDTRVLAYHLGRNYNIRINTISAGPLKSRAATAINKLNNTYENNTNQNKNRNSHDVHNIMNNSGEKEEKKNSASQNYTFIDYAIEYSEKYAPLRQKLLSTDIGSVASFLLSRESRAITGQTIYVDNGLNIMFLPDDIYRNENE
Assay: Inhibition of Plasmodium falciparum FabI at 100 uM

For `COc1ccc(-c2cc(=O)c3c(O)c(O)c(OC)cc3o2)cc1`, the inhibition was “inactive”.

In the case of `COc1cc2c(c(O)c1OC)C(=O)C[C@@H](c1ccc(O)cc1)O2`, the inhibition is reported as “inactive”.

`O=c1cc(-c2ccccc2)oc2ccc(O)cc12` was tested, and the inhibition was “inactive”.
